In US10584128B2, “Bicyclic dihydropyrimidine-carboxamide derivatives as Rho-Kinase inhibitors” (CHIESI FARMACEUTICI S.p.A., priority 2016, dated 2020):

How the values were obtained:
Rho kinase 2 = Rho kinase 2 (Homo sapiens, UniProt O75116); assay: In vitro Rho kinase inhibitory activity assay (ADP-Glo kit, Myelin Basic Protein substrate); type: biochemical; conditions: 10 μM ATP, 25° C., read-out: ROCK2 inhibitory activity (Ki, range of activity)
Procedure, shortened: (§1)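 ADP-Glo luminescence read-out. Enzyme (ROCK1 or ROCK2) + compound 30 min, then 10 μM ATP final, 1 h, 25 °C; 2.5 μM MBP peptide substrate, Tris pH7.5/MgCl2/BSA/DTT buffer, 1% DMSO. IC50 from variable-slope fit (0–100% fixed); Ki via Cheng-Prusoff.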

Rho kinase 1 = Rho kinase 1 (Homo sapiens, UniProt Q13464); assay: as above; type: biochemical; conditions: 10 μM ATP, 25° C., read-out: ROCK1 inhibitory activity (Ki, range of activity)
Rho kinase 1, sequence (Q13464 whole entry): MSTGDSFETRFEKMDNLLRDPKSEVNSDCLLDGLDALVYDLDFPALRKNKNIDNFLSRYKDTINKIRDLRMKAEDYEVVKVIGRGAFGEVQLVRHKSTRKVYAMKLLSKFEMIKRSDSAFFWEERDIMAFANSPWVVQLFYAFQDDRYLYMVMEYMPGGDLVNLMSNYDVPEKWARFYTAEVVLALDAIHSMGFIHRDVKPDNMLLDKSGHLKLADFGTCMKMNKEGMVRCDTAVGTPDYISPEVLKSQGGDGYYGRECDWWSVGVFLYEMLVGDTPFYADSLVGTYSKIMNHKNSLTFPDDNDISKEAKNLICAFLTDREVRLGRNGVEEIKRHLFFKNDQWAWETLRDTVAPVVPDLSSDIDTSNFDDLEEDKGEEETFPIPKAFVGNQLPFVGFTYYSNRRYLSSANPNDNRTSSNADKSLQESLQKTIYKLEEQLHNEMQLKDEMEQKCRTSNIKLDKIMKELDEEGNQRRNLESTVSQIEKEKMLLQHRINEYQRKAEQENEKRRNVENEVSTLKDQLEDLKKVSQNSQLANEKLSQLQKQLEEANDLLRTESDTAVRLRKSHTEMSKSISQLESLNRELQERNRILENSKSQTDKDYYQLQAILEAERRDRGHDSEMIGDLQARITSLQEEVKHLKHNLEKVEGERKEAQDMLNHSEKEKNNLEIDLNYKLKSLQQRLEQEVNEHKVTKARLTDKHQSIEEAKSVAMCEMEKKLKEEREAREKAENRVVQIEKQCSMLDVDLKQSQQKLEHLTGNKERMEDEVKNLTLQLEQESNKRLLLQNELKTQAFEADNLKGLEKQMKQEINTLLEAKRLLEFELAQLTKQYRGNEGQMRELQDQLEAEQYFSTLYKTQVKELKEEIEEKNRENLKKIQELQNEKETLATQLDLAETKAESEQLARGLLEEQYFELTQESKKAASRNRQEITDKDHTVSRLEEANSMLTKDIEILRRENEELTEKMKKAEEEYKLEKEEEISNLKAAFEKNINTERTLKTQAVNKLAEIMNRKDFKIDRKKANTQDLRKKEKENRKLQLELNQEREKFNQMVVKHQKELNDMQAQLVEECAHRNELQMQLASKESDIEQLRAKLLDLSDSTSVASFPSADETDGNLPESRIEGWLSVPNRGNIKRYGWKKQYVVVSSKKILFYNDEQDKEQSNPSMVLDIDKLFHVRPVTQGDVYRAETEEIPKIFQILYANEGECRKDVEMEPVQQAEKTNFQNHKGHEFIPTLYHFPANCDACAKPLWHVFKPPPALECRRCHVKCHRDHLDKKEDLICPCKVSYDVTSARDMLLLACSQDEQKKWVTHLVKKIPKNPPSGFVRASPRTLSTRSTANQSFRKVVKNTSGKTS
Procedure, shortened: as §1

Rho kinase 2, sequence (O75116 whole entry): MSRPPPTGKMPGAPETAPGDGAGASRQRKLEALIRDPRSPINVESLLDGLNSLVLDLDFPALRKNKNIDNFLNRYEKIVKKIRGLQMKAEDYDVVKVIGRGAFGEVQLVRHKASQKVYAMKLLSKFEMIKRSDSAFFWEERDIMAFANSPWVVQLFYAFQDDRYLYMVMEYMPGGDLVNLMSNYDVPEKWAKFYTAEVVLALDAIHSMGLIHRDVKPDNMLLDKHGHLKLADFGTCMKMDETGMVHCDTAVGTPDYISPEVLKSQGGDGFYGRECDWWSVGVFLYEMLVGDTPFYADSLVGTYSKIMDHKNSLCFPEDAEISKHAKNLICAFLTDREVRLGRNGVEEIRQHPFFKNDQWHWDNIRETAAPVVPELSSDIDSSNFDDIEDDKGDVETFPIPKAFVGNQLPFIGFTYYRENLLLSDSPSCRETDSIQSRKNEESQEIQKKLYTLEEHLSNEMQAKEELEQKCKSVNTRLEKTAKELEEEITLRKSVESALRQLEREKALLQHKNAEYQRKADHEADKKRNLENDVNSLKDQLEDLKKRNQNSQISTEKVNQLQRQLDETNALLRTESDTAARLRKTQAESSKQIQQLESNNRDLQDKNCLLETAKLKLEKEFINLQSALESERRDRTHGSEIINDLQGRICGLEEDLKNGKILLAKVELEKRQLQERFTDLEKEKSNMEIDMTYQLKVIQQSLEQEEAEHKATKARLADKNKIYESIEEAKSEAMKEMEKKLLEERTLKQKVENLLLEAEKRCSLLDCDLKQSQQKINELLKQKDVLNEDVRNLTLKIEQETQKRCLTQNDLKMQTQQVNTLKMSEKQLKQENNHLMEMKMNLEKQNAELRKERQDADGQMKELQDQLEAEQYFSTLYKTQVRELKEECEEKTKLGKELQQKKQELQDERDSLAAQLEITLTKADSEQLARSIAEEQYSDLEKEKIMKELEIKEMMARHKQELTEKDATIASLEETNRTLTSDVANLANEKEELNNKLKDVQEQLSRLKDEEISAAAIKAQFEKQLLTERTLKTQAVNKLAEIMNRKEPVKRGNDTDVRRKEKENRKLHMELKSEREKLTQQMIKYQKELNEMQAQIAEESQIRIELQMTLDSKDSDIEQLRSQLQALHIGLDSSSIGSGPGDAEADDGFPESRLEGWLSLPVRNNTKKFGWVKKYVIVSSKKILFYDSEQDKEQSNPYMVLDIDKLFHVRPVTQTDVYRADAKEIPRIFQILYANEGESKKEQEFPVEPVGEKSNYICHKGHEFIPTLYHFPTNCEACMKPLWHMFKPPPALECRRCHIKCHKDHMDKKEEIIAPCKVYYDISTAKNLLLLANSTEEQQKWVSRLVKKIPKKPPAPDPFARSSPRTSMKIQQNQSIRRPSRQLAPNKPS

Structure (SMILES): CC1=C(C(=O)Nc2ccc3cnccc3c2)C(c2ccc(C(F)(F)F)c(F)c2)n2nc(C(=O)N3CCC(N(C)C)CC3)cc2N1 (centres unmarked) [Example 87, 2-(4-(dimethylamino)piperidine-1-carbonyl)-7-(3-fluoro-4-(trifluoromethyl)phenyl)-N-(isoquinolin-6-yl)-5-methyl-4,7-dihydropyrazolo[1,5-a]pyrimidine-6-carboxamide]
- Ki (Rho kinase 2): < 50 nM
- Ki (Rho kinase 1): < 50 nM

Structure (SMILES): CC1=C(C(=O)Nc2ccc3[nH]ncc3c2)C(c2ccc(Cl)cc2)n2nnnc2N1 (single isomer, unassigned) [Example 24B, 7-(4-chlorophenyl)-N-(1H-indazol-5-yl)-5-methyl-4,7-dihydrotetrazolo[1,5-a]pyrimidine-6-carboxamide]
- Ki (Rho kinase 2): 50 to 500 nM
- Ki (Rho kinase 1): 50 to 500 nM

Structure (SMILES): CC1=C(C(=O)Nc2ccc3[nH]ncc3c2)C(c2ccc(C(F)(F)F)cc2)n2nc(CO)cc2N1 (single isomer, unassigned) [Example 69B, 2-(hydroxymethyl)-N-(1H-indazol-5-yl)-5-methyl-7-(4-(trifluoromethyl)phenyl)-4,7-dihydropyrazolo[1,5-a]pyrimidine-6-carboxamide]
- Ki (Rho kinase 2): < 50 nM
- Ki (Rho kinase 1): < 50 nM

Structure (SMILES): CC1=C(C(=O)Nc2ccc3[nH]ncc3c2)C(c2ccc(F)cc2)n2nc(C(C)(C)C)cc2N1 (centres unmarked) [Example 29, 2-(tert-butyl)-7-(4-fluorophenyl)-N-(1H-indazol-5-yl)-5-methyl-4,7-dihydropyrazolo[1,5-a]pyrimidine-6-carboxamide]
- Ki (Rho kinase 2): < 50 nM
- Ki (Rho kinase 1): < 50 nM

Structure (SMILES): CC1=C(C(=O)Nc2ccc3cnccc3c2)C(c2ccc(C(F)(F)F)c(F)c2)n2nc(C(=O)N(C)CCN(C)C)cc2N1 (centres unmarked) [Example 80, N2-(2-(dimethylamino)ethyl)-7-(3-fluoro-4-(trifluoromethyl)phenyl)-N6-(isoquinolin-6-yl)-N2,5-dimethyl-4,7-dihydropyrazolo[1,5-a]pyrimidine-2,6-dicarboxamide]
- Ki (Rho kinase 2): < 50 nM
- Ki (Rho kinase 1): < 50 nM

Structure (SMILES): CCOC(=O)c1cc2n(n1)C(c1ccc(Cl)cc1F)C(C(=O)Nc1ccc3[nH]ncc3c1)=C(C)N2 (single isomer, unassigned) [Example 7A, ethyl 6-((1H-indazol-5-yl)carbamoyl)-7-(4-chloro-2-fluorophenyl)-5-methyl-4,7-dihydropyrazolo[1,5-a]pyrimidine-2-carboxylate]
- Ki (Rho kinase 2): < 50 nM
- Ki (Rho kinase 1): < 50 nM

Structure (SMILES): CC1=C(C(=O)Nc2ccc3[nH]ncc3c2)C(c2ccc(Cl)nc2)n2nc(C(F)(F)F)cc2N1 (single isomer, unassigned) [Example 32A, 7-(6-chloropyridin-3-yl)-N-(1H-indazol-5-yl)-5-methyl-2-(trifluoromethyl)-4,7-dihydropyrazolo[1,5-a]pyrimidine-6-carboxamide]
- Ki (Rho kinase 2): > 500 nM
- Ki (Rho kinase 1): > 500 nM

Structure (SMILES): CC1=C(C(=O)Nc2ccc3cnccc3c2)C(c2ccc(C(F)(F)F)c(F)c2)n2nc(CN(C)CC3CCN(C)CC3)cc2N1 (single isomer, unassigned) [Example 104A, 7-(3-fluoro-4-(trifluoromethyl)phenyl)-N-(isoquinolin-6-yl)-5-methyl-2-((methyl((1-methylpiperidin-4-yl)methyl)amino)methyl)-4,7-dihydropyrazolo[1,5-a]pyrimidine-6-carboxamide]
- Ki (Rho kinase 2): < 50 nM
- Ki (Rho kinase 1): < 50 nM

Structure (SMILES): CC1=C(C(=O)Nc2ccc3cnccc3c2)C(c2ccc(Cl)cc2)n2nc(CO)cc2N1 (single isomer, unassigned) [Example 62A, 7-(4-chlorophenyl)-2-(hydroxymethyl)-N-(isoquinolin-6-yl)-5-methyl-4,7-dihydropyrazolo[1,5-a]pyrimidine-6-carboxamide]
- Ki (Rho kinase 2): < 50 nM
- Ki (Rho kinase 1): < 50 nM

Structure (SMILES): CCOC(=O)c1cc2n(n1)C(c1cccc(OC)c1)C(C(=O)Nc1ccc3[nH]ncc3c1)=C(C)N2 (centres unmarked) [Example 6, ethyl 6-((1H-indazol-5-yl)carbamoyl)-7-(3-methoxyphenyl)-5-methyl-4,7-dihydropyrazolo[1,5-a]pyrimidine-2-carboxylate]
- Ki (Rho kinase 2): 50 to 500 nM
- Ki (Rho kinase 1): 50 to 500 nM

Structure (SMILES): CC1=C(C(=O)Nc2ccc3cnccc3c2)C(c2ccc(C(F)(F)F)c(F)c2)n2nc(CO)cc2N1 (single isomer, unassigned) [Example 65A, 7-(3-fluoro-4-(trifluoromethyl)phenyl)-2-(hydroxymethyl)-N-(isoquinolin-6-yl)-5-methyl-4,7-dihydropyrazolo[1,5-a]pyrimidine-6-carboxamide]
- Ki (Rho kinase 2): < 50 nM
- Ki (Rho kinase 1): < 50 nM

Structure (SMILES): CC1=C(C(=O)Nc2ccc3[nH]ncc3c2)C(c2ccc(Cl)cc2)n2nnnc2N1 (single isomer, unassigned) [Example 24A, 7-(4-chlorophenyl)-N-(1H-indazol-5-yl)-5-methyl-4,7-dihydrotetrazolo[1,5-a]pyrimidine-6-carboxamide]
- Ki (Rho kinase 2): < 50 nM
- Ki (Rho kinase 1): < 50 nM

Structure (SMILES): CC1=C(C(=O)Nc2ccc3cnccc3c2)C(c2ccc(C(F)(F)F)c(F)c2)n2nc(C(=O)N3C[C@H]4CN(C)C[C@H]4C3)cc2N1 (some centres unmarked) [Example 86, 7-(3-fluoro-4-(trifluoromethyl)phenyl)-N-(isoquinolin-6-yl)-5-methyl-2-(5-methyloctahydropyrrolo[3,4-c]pyrrole-2-carbonyl)-4,7-dihydropyrazolo[1,5-a]pyrimidine-6-carboxamide]
- Ki (Rho kinase 2): < 50 nM
- Ki (Rho kinase 1): < 50 nM

Structure (SMILES): CC1=C(C(=O)Nc2ccc3[nH]ncc3c2)C(c2ccc(F)cc2)n2ncc(C(N)=O)c2N1 (centres unmarked) [Example 19, 7-(4-fluorophenyl)-N6-(1H-indazol-5-yl)-5-methyl-4,7-dihydropyrazolo[1,5-a]pyrimidine-3,6-dicarboxamide]
- Ki (Rho kinase 2): 50 to 500 nM
- Ki (Rho kinase 1): 50 to 500 nM

Structure (SMILES): CC1=C(C(=O)Nc2ccc3cnccc3c2)C(c2ccc3ncn(C)c3c2)n2nc(CO)cc2N1 (centres unmarked) [Example 45, 2-(hydroxymethyl)-N-(isoquinolin-6-yl)-5-methyl-7-(1-methyl-1H-benzo[d]imidazol-6-yl)-4,7-dihydropyrazolo[1,5-a]pyrimidine-6-carboxamide]
- Ki (Rho kinase 2): > 500 nM
- Ki (Rho kinase 1): > 500 nM

Structure (SMILES): CC1=C(C(=O)Nc2ccc3cnccc3c2)C(c2ccc(C(F)(F)F)c(F)c2)n2nc(CNC(=O)CCN3CCCCC3)cc2N1 (single isomer, unassigned) [Example 138B, 7-(3-Fluoro-4-(trifluoromethyl)phenyl)-N-(isoquinolin-6-yl)-5-methyl-2-((3-(piperidin-1-yl)propanamido)methyl)-4,7-dihydropyrazolo[1,5-a]pyrimidine-6-carboxamide]
- Ki (Rho kinase 2): > 500 nM
- Ki (Rho kinase 1): > 500 nM

Structure (SMILES): CCOC(=O)c1cc2n(n1)C(C1CCCCC1)C(C(=O)Nc1ccc3[nH]ncc3c1)=C(C)N2 (centres unmarked) [Example 14, ethyl 6-((1H-indazol-5-yl)carbamoyl)-7-cyclohexyl-5-methyl-4,7-dihydropyrazolo[1,5-a]pyrimidine-2-carboxylate]
- Ki (Rho kinase 2): < 50 nM
- Ki (Rho kinase 1): 50 to 500 nM

Structure (SMILES): CC1=C(C(=O)Nc2ccc3[nH]ncc3c2)C(C2CCN(C)CC2)n2nc(C(F)(F)F)cc2N1 (centres unmarked) [Example 33, N-(1H-indazol-5-yl)-5-methyl-7-(1-methylpiperidin-4-yl)-2-(trifluoromethyl)-4,7-dihydropyrazolo[1,5-a]pyrimidine-6-carboxamide]
- Ki (Rho kinase 2): > 500 nM
- Ki (Rho kinase 1): > 500 nM

Structure (SMILES): CC1=C(C(=O)Nc2ccc3cnccc3c2)C(C2COc3ccccc3O2)n2nc(CO)cc2N1 (single isomer, unassigned) [Example 72C, 7-(2,3-dihydrobenzo[b][1,4]dioxin-2-yl)-2-(hydroxymethyl)-N-(isoquinolin-6-yl)-5-methyl-4,7-dihydropyrazolo[1,5-a]pyrimidine-6-carboxamide]
- Ki (Rho kinase 2): 50 to 500 nM
- Ki (Rho kinase 1): 50 to 500 nM

Structure (SMILES): COCC1CN(Cc2cc3n(n2)C(c2ccc(C(F)(F)F)c(F)c2)C(C(=O)Nc2ccc4cnccc4c2)=C(C)N3)C1 (centres unmarked) [Example 101, 7-(3-fluoro-4-(trifluoromethyl)phenyl)-N-(isoquinolin-6-yl)-2-((3-(methoxymethyl)azetidin-1-yl)methyl)-5-methyl-4,7-dihydropyrazolo[1,5-a]pyrimidine-6-carboxamide]
- Ki (Rho kinase 2): < 50 nM
- Ki (Rho kinase 1): < 50 nM

Structure (SMILES): CC1=C(C(=O)Nc2ccc3cnccc3c2)C(c2ccc(C(F)(F)F)c(F)c2)n2nc(C(=O)NCCN3CCCCC3)cc2N1 (centres unmarked) [Example 77, 7-(3-fluoro-4-(trifluoromethyl)phenyl)-N6-(isoquinolin-6-yl)-5-methyl-N2-(2-(piperidin-1-yl)ethyl)-4,7-dihydropyrazolo[1,5-a]pyrimidine-2,6-dicarboxamide]
- Ki (Rho kinase 2): < 50 nM
- Ki (Rho kinase 1): < 50 nM

Structure (SMILES): CCOC(=O)c1cc2n(n1)C(c1ccc(F)cc1)C(C(=O)Nc1ccc3[nH]ncc3c1)=C(C)N2 (single isomer, unassigned) [Example 4A, ethyl 6-((1H-indazol-5-yl)carbamoyl)-7-(4-fluorophenyl)-5-methyl-4,7-dihydropyrazolo[1,5-a]pyrimidine-2-carboxylate]
- Ki (Rho kinase 2): > 500 nM
- Ki (Rho kinase 1): > 500 nM

Structure (SMILES): CC1=C(C(=O)Nc2ccc3cnccc3c2)C(c2ccc(C(F)(F)F)c(F)c2)n2nc(C(=O)NCCN3CCCCC3)cc2N1 (single isomer, unassigned) [77B]
- Ki (Rho kinase 2): < 50 nM
- Ki (Rho kinase 1): < 50 nM

Structure (SMILES): CC1=C(C(=O)Nc2ccc3cnccc3c2)C(c2ccc(C(F)(F)F)c(F)c2)n2nc(CN3CCN(C)CC3)cc2N1 (single isomer, unassigned) [Example 96B, 7-(3-fluoro-4-(trifluoromethyl)phenyl)-N-(isoquinolin-6-yl)-5-methyl-2-((4-methylpiperazin-1-yl)methyl)-4,7-dihydropyrazolo[1,5-a]pyrimidine-6-carboxamide]
- Ki (Rho kinase 2): < 50 nM
- Ki (Rho kinase 1): < 50 nM

Structure (SMILES): CC1=C(C(=O)Nc2ccc3cnccc3c2)C(c2ccc(C(F)(F)F)c(F)c2)n2nc(CN)cc2N1 (centres unmarked) [Example 112, 2-(aminomethyl)-7-(3-fluoro-4-(trifluoromethyl)phenyl)-N-(isoquinolin-6-yl)-5-methyl-4,7-dihydropyrazolo[1,5-a]pyrimidine-6-carboxamide]
- Ki (Rho kinase 2): < 50 nM
- Ki (Rho kinase 1): < 50 nM
